Assay results as given in patent US8575197B2, “Pyrolinone derivative and pharmaceutical composition comprising the same” (Shionogi & Co., Ltd., priority 2008, dated 2013).

Target: human P2X3 receptor (Homo sapiens (Human), UniProt P56373)
Assay: P2X3 receptor inhibition, ATP-evoked Fluo-3 calcium fluorescence (FDSS 3000)
Assay type: cell-based
Details: C6BU-1 cell transfected with human P2X3 receptor gene; ATP-evoked Fluo-3 fluorescence
Experimental: Stably expressing cell line (C6BU-1 cell transfected with human P2X3 receptor gene (GenBank accession number Y07683)) was used. The cells were seeded in a 96-well microtiter plate at a concentration of 8000 cells/well and cultured in the medium (8.3% fetal bovine serum, 8.3% horse serum, 1% antibiotic and antifungal in DMEM) for one day at 37° C. under 5% carbon dioxide atmosphere. The medium was replaced with 4 μM Fluo-3-AM solution (pH7.5) containing 20 mM HEPES, 137 mM NaCl, 2.7 mM KCl, 0.9 mM MgCl2, 5.0 mM CaCl2, 5.6 mM D-glucose, 2.5 mM probenecid, 10% BSA, and 0.08% Pluronic F-127, and incubated at 37° C. under 5% dioxide carbon atmosphere for one hour. The plate was washed with washing buffer (20 mM HEPES, 137 mM NaCl, 2.7 mM KCl, 0.9 mM MgCl2, 5.0 mM CaCl2, 5.6 mM D-glucose, 2.5 mM probenecid, pH7.5), and each well was added with 40 μL of this buffer. The plate was placed in High-Throughput Screening System FDSS 3000 (Hamamatsu Photonics K.K.). Measurement of fluorescence intensity by FDSS 3000 was started, and 40 μL of DMSO solutions containing different concentrations of the test compound as prepared by dilution with dilution buffer (20 mM HEPES, 137 mM NaCl, 2.7 mM KCl, 0.9 mM MgCl2, 5.0 mM CaCl2, 5.6 mM D-glucose, 2.5 mM probenecid, 0.1% Pluronic F-127, pH7.5) were dispensed to each well through the built-in automatic dispenser. Five minutes after, 40 nM ATP solution (50 μL) prepared by dilution with the dilution buffer was dispensed through the built-in automatic dispenser, and the measurement of fluorescence intensity was continued for 3 min. For each well, the specific maximum fluorescence intensity was calculated as the ratio of the maximum fluorescence intensity after addition of the ATP solution to the fluorescence intensity at the starting of the measurement. […] FDSS software (Hamamatsu Photonics K.K.) was used for calculation of the specific maximum fluorescence intensity. IC50 was calculated using Microsoft™ Excel™ (Microsoft Corporation) and XLfit™ (ID Business Solutions Ltd.).

human P2X3 receptor, sequence (P56373 whole entry): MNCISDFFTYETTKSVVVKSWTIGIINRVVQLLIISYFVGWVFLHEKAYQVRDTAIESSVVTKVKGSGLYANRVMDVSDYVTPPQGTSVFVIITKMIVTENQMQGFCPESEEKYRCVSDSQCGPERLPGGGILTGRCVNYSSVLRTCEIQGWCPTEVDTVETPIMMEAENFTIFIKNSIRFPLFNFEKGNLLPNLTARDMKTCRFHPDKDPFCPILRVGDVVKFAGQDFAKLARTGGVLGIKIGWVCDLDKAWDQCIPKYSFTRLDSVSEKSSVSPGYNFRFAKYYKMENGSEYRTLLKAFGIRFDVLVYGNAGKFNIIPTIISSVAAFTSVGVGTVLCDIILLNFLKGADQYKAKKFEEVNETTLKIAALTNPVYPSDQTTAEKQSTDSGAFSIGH

Structure (SMILES) | IC50 [nM]
COC(=O)COc1ccccc1C1C(C(=O)C(C)(C)C)=C(O)C(=O)N1c1ccc(-c2cccs2)cc1 (stereo not shown) [Compound I-113] | 12
COC(=O)COc1ccccc1C1C(C(=O)C(C)(C)C)=C(O)C(=O)N1c1ccc(-c2ccsc2)cc1 (stereo not shown) [Compound I-114] | 12
COc1ncccc1C1C(C(=O)C(C)(C)C)=C(O)C(=O)N1c1ccc(-c2cccs2)cc1 (stereo not shown) [Compound I-115] | 108
COc1ncccc1C1C(C(=O)C(C)(C)C)=C(O)C(=O)N1c1ccc(-c2ccsc2)cc1 (stereo not shown) [Compound I-116] | 77
COc1ncccc1C1C(C(=O)C(C)(C)C)=C(O)C(=O)N1c1ccc(-c2ccco2)cc1 (stereo not shown) [Compound I-117] | 383
COc1ncccc1C1C(C(=O)C(C)(C)C)=C(O)C(=O)N1c1ccc(-c2ccoc2)cc1 (stereo not shown) [Compound I-118] | 282
CC(C)(C)C(=O)C1=C(O)C(=O)N(c2ccc(-c3cccs3)cc2)C1c1ccccc1OCC(=O)O (stereo not shown) [Compound I-119] | 98
COc1ncccc1C1C(C(=O)C(C)(C)C)=C(O)C(=O)N1c1ccc(-c2cccs2)nc1 (stereo not shown) [Compound I-122] | 342
COCCOc1ccccc1C1C(C(=O)C(C)(C)C)=C(O)C(=O)N1c1ccc(-c2cccs2)cc1 (stereo not shown) [Compound I-123] | 13
COc1ccc(C(=O)C2=C(O)C(=O)N(c3nc4cc(OC)ccc4s3)C2c2ccccc2OCCO)cc1 (stereo not shown) [Compound I-125] | 110
COc1ccc(C(=O)C2=C(O)C(=O)N(c3nc4ccc(OC)cc4s3)C2c2ccccc2OCCO)cc1 (stereo not shown) [Compound I-126] | 15
COCCOc1ccccc1C1C(C(=O)C(C)(C)C)=C(O)C(=O)N1c1ccc(-c2nc(C)no2)cc1 (stereo not shown) [Compound I-128] | 155
COCCOc1ccccc1C1C(C(=O)C(C)(C)C)=C(O)C(=O)N1c1ccc(-c2noc(C)n2)cc1 (stereo not shown) [Compound I-129] | 91
COCCOc1ccccc1C1C(C(=O)C(C)(C)C)=C(O)C(=O)N1c1ccc(SC)cc1 (stereo not shown) [Compound I-130] | 476
COc1ccc(C(=O)C2=C(O)C(=O)N(c3ccc(-c4ccon4)cc3)C2c2ccc(Br)cc2OC)cc1 (stereo not shown) [Compound I-131] | 251
COCCOc1ccccc1C1C(C(=O)C(C)(C)C)=C(O)C(=O)N1c1ccc(-c2ccco2)cc1 (stereo not shown) [Compound I-132] | 43
COC(=O)COc1ccccc1C1C(C(=O)C(C)(C)C)=C(O)C(=O)N1c1ccc(-c2ccon2)cc1 (stereo not shown) [Compound I-133] | 367
CC(C)(C)C(=O)C1=C(O)C(=O)N(c2ccc(-c3ccon3)cc2)C1c1ccccc1OCC(=O)O (stereo not shown) [Compound I-134] | 776
CN(C)CCOc1ccccc1C1C(C(=O)C(C)(C)C)=C(O)C(=O)N1c1ccc(-c2ccon2)cc1 (stereo not shown) [Compound I-137] | 615
COCCOc1ncccc1C1C(C(=O)C(C)(C)C)=C(O)C(=O)N1c1ccc(-c2ccsc2)cc1 (stereo not shown) [Compound I-138] | 16
COCCOc1ncccc1C1C(C(=O)C(C)(C)C)=C(O)C(=O)N1c1ccc(-c2ccon2)cc1 (stereo not shown) [Compound I-139] | 930
Cc1ncccc1C1C(C(=O)C(C)(C)C)=C(O)C(=O)N1c1ccc(-c2cccs2)cc1 (stereo not shown) [Compound I-141] | 346
Cc1ncccc1C1C(C(=O)C(C)(C)C)=C(O)C(=O)N1c1ccc(-c2ccco2)cc1 (stereo not shown) [Compound I-142] | 315
Cc1ncccc1C1C(C(=O)C(C)(C)C)=C(O)C(=O)N1c1ccc(-c2ccsc2)cc1 (stereo not shown) [Compound I-143] | 331
CC(C)(C)C(=O)C1=C(O)C(=O)N(c2ccc(-c3ccon3)cc2)C1c1ccccc1OCC(N)=O (stereo not shown) [Compound I-144] | 365
CNC(=O)COc1ccccc1C1C(C(=O)C(C)(C)C)=C(O)C(=O)N1c1ccc(-c2ccon2)cc1 (stereo not shown) [Compound I-146] | 727
CNC(=O)COc1ccccc1C1C(C(=O)C(C)(C)C)=C(O)C(=O)N1c1ccc(-c2ccsc2)cc1 (stereo not shown) [Compound I-147] | 17
COCCOc1ncccc1C1C(C(=O)C(C)(C)C)=C(O)C(=O)N1c1ccc(-c2cccs2)cc1 (stereo not shown) [Compound I-149] | 15
COCCOc1ncccc1C1C(C(=O)C(C)(C)C)=C(O)C(=O)N1c1ccc(SC)cc1 (stereo not shown) [Compound I-150] | 415

Now from value to compound:

IC50 [nM] | Structure (SMILES)
8 | CC(C)(C)C(=O)C1=C(O)C(=O)N(c2ccc(-c3ccsc3)cc2)C1c1ccccc1OCC(N)=O (stereo not shown) [Compound I-151]
219 | C[S+]([O-])CCOc1ccccc1C1C(C(=O)C(C)(C)C)=C(O)C(=O)N1c1ccc(-c2ccon2)cc1 (stereo not shown) [Compound I-152]
216 | COCCOc1ccccc1C1C(C(=O)C(C)(C)C)=C(O)C(=O)N1c1ccc(-c2cc[nH]c2)cc1 (stereo not shown) [Compound I-153]
192 | CC(C)(C)C(=O)C1=C(O)C(=O)N(c2ccc(-c3cc[nH]c3)cc2)C1c1ccccc1OCCO (stereo not shown) [Compound I-154]
32 | COCCOc1ccccc1C1C(C(=O)C(C)(C)C)=C(O)C(=O)N1c1ccc(-c2ccoc2)cc1 (stereo not shown) [Compound I-156]
25 | CC(C)C(=O)C1=C(O)C(=O)N(c2ccc(-c3ccsc3)cc2)C1c1ccccc1OCCN(C)C (stereo not shown) [Compound I-157]
23 | CC(C)C(=O)C1=C(O)C(=O)N(c2ccc(-c3ccsc3)cc2)C1c1ccccc1OCCN(C)C (stereo not shown) [Compound I-158]
7 | COCCOc1ccccc1C1C(C(=O)C(C)C)=C(O)C(=O)N1c1ccc(-c2ccsc2)cc1 (stereo not shown) [Compound I-161]
41 | COCc1ncccc1C1C(C(=O)C(C)(C)C)=C(O)C(=O)N1c1ccc(-c2ccsc2)cc1 (stereo not shown) [Compound I-162]
74 | COCCOc1ncccc1C1C(C(=O)C(C)(C)C)=C(O)C(=O)N1c1ccc(-c2ccoc2)cc1 (stereo not shown) [Compound I-164]
95 | CC(C)(C)C(=O)C1=C(O)C(=O)N(c2ccc(-c3ccoc3)cc2)C1c1cccnc1OCCO (stereo not shown) [Compound I-165]
19 | CC(C)(C)C(=O)C1=C(O)C(=O)N(c2ccc(-c3ccsc3)cc2)C1c1cccnc1OCCO (stereo not shown) [Compound I-166]
120 | COCCOCc1ncccc1C1C(C(=O)C(C)(C)C)=C(O)C(=O)N1c1ccc(-c2ccsc2)cc1 (stereo not shown) [Compound I-168]
19 | COCCOc1ncccc1C1C(C(=O)C(C)C)=C(O)C(=O)N1c1ccc(-c2ccsc2)cc1 (stereo not shown) [Compound I-169]
610 | CSc1ccc(N2C(=O)C(O)=C(C(=O)C(C)(C)C)C2c2cccnc2OCCO)cc1 (stereo not shown) [Compound I-171]
24 | CC(C)(C)C(=O)C1=C(O)C(=O)N(c2ccc(-c3cccs3)cc2)C1c1cccnc1OCCO (stereo not shown) [Compound I-172]

IC50 [nM] | Structure (SMILES)
137 | CC(C)(C)C(=O)C1=C(O)C(=O)N(c2ccc(-c3ccco3)cc2)C1c1cccnc1OCCO (stereo not shown) [Compound I-173]
572 | COCCOc1ncccc1C1C(C(=O)C(C)C)=C(O)C(=O)N1c1ccc(-c2noc(C)n2)cc1 (stereo not shown) [Compound I-174]
46 | CC(C)C(=O)C1=C(O)C(=O)N(c2ccc(-c3ccsc3)cc2)C1c1cccnc1OCCO (stereo not shown) [Compound I-176]
374 | Cc1nc(-c2ccc(N3C(=O)C(O)=C(C(=O)C(C)C)C3c3cccnc3OCCO)cc2)no1 (stereo not shown) [Compound I-178]
659 | CC(C)C(=O)C1=C(O)C(=O)N(c2ccc(-c3ccon3)cc2)C1c1cccnc1OCCO (stereo not shown) [Compound I-179]
5 | CC(C)(C)C(=O)C1=C(O)C(=O)N(c2ccc(-c3ccsc3)cc2)C1c1ccccc1OCC#N (stereo not shown) [Compound I-180]
114 | COC(=O)COCc1ncccc1C1C(C(=O)C(C)(C)C)=C(O)C(=O)N1c1ccc(-c2ccsc2)cc1 (stereo not shown) [Compound I-181]
4 | CC(C)C(=O)C1=C(O)C(=O)N(c2ccc(-c3ccsc3)cc2)C1c1ccccc1OCC#N (stereo not shown) [Compound I-183]
163 | CC(C)(C)C(=O)C1=C(O)C(=O)N(c2ccc(-c3ccsc3)cc2)C1c1ccccc1C(=O)O (stereo not shown) [Compound I-184]
111 | CC(C)C(=O)C1=C(O)C(=O)N(c2ccc(-c3ccsc3)cc2)C1c1ccccc1OCC(=O)O (stereo not shown) [Compound I-185]
13 | COCc1ccccc1C1C(C(=O)C(C)C)=C(O)C(=O)N1c1ccc(-c2ccsc2)cc1 (stereo not shown) [Compound I-186]
86 | COc1ncccc1C1C(C(=O)C(C)C)=C(O)C(=O)N1c1ccc(-c2ccsc2)cc1 (stereo not shown) [Compound I-187]
22 | CNC(=O)COc1ccccc1C1C(C(=O)C(C)C)=C(O)C(=O)N1c1ccc(-c2ccsc2)cc1 (stereo not shown) [Compound I-188]
14 | CC(C)C(=O)C1=C(O)C(=O)N(c2ccc(-c3ccsc3)cc2)C1c1ccccc1OCC(N)=O (stereo not shown) [Compound I-189]
40 | CC(C)C(=O)C1=C(O)C(=O)N(c2ccc(-c3ccoc3)cc2)C1c1ccccc1OCCO (stereo not shown) [Compound I-190]
279 | CC(C)C(=O)C1=C(O)C(=O)N(c2ccc(-c3ccon3)cc2)C1c1ccccc1OCCO (stereo not shown) [Compound I-191]
